Data published in patent US9364476B2, “Methods of treating a Bruton's Tyrosine Kinase disease or disorder” (Celgene Avilomics Research, Inc., priority 2011, dated 2016).
Where “and” joins values, the source holds several entries; their conditions need not be identical. Identical values can stand only once. Like-named read-outs stand apart in the source and are kept apart here.

Legend:
[1] = target: Spleen tyrosine kinase (Syk) (Homo sapiens, UniProt P43405); details: DLBCL, CLL, and mantle cell lymphoma; cited from earlier work
B-cell = details: cited from earlier work
Btk = Btk (Homo sapiens, UniProt Q06187); details: enzymatic and cellular assays; cited from earlier work
[2] = test system: Relapsed and/or refractory CLL/SLL; assay: CLL expansion cohort C: disease response; assay type: in vivo, human
Procedure: After completion of observation for DLTs in Example 1, the accumulated safety, PK, and PD data from Example 1 were evaluated to select a preliminary recommended Phase 2 dose for administration to additional subjects enrolled into an independent and non-randomized diagnosis-specific expansion cohorts in the Diagnosis Specific Expansion Cohorts study. • Cohort A: Relapsed and/or refractory diffuse large B-cell lymphoma (DLBCL); • Cohort B: Relapsed and/or refractory indolent and mantle B-cell lymphomas, Waldenstrom's macroglobulinemia, and other B lymphoproliferative disorders of uncertain malignant potential (at least 10 of the 24 enrollment slots will be reserved for subjects with mantle cell lymphoma); and • Cohort C: Relapsed and/or refractory CLL/SLL.
(§1) 24 subjects were enrolled into the CLL expansion cohort C and were assessed for safety, tolerability, DLT, PK, PD and disease response. Each subject was evaluated prior to enrollment to ensure that minimum hematological criteria were satisfied: […]

[3] = Environmental stability (heat, acid, base); assay type: physicochemical
[4] = Plasma API levels by LC-MS-MS (PK); assay type: in vivo, human
Procedure: Plasma API levels were assessed by LC-MS-MS.

[5] = test system: relapsed or refractory B-NHL, CLL/SLL, or WM; assay: Dose escalation study: disease progression and treatment duration; assay type: in vivo, human
Procedure: (§2) Intrapatient dose escalation was allowed.
Subjects with CLL experiencing nodal response with lymphocytosis (which may be related to drug-mediated lymphocyte redistribution) were also eligible for additional treatment. Subjects with WM with increasing serum Immunoglobulin M (“IgM”) levels at the end of the first 28-day cycle were also evaluated for lymphadenopathy/organomegaly and marrow infiltration. Investigators were permitted to use judgment in determining whether to continue these subjects into the second 28-day cycle if there was a discordant response between increased IgM and stable or decreased lymphadenopathy/organomegaly and marrow infiltration.

CLL patients = assay: Dose escalation study: lymph node size and absolute lymphocyte count in CLL patients; assay type: in vivo, human
Text: FIG. 6 depicts the change in lymph node size in CLL patients with available lymph node assessment, twelve (12) of whom are from cohorts 1-5. These patients have experienced some degree of lymph node reduction: 2/12 patients have experienced nodal response (>50% reduction); 6/12 patients have experienced between 25 and 50% reduction over the treatment and follow-up periods indicated in the figure. The doses indicated refer to the patient's starting dose. The numbers at the top of each bar indicate the number of cycles completed for each subject as of the last available lymph node measurement.
FIG. 7 depicts the change in absolute lymphocyte count (ALC) in CLL patients. As of Sep. […] All CLL subjects with follow-up through cycle 1 at all dose levels are shown. Subjects treated with 750 mg or higher are indicated under the dotted line.

B-NHL patients = assay: Dose escalation study: lymph node size in B-NHL patients; assay type: in vivo, human; details: dose escalation cohorts
Text: The doses indicated refer to the patient's starting dose. The numbers at the top of each bar indicate the number of cycles completed for each subject as of the last available lymph node measurement.

[6] = for maximum tolerated dose (MTD): dose escalation cohorts, besylate
Text: as §2
Enrollment for Cohorts 1-5 was not restricted or contingent on the basis of specific B-NHL/CLL/WM diagnosis. […] For example, the physician-investigator may elect to rest a patient due to occurrence or recurrence of adverse events. […] In this context, treatment duration refers to the time a patient is enrolled in the study, inclusive of all rest periods, until treatment is discontinued.
Six (6) subjects diagnosed with CLL and six (6) patients diagnosed with B-NHL were enrolled in each of Cohorts 6A and 6B. Cohorts 6A and 6B were enrolled concurrently, and if meeting the requirements for continued escalation, Cohorts 7A and 7B will be enrolled and evaluated.
Hematologic DLTs included Grade 4 anemia or thrombocytopenia, Grade 4 neutropenia greater than 5 days despite granulocyte colony-stimulating factor (G-CSF) and Grade 3 or higher febrile neutropenia.
Dose escalation will continue until a DLT is observed. […] One key objective for the dose escalation portion of the study was to identify the maximum tolerated dose (MTD) and Optimal Biological Effect dose (OBE). The OBE was defined as: […]

Solubility of the API = assay type: physicochemical
[7] = CLL expansion cohort C: DLT; assay type: in vivo, human; details: 24 subjects, 750 mg po QD
Procedure: as §1

[8] = eleven patients from Expansion Cohort C, 750 mg QD
[9] = twelve CLL patients from cohorts 1-5 with lymph node assessment
[10] = 5/21 subjects, regardless of dose
[11] = cohort 5, 750 mg QD, initial, through May 22, 2012
[12] = cohorts 1-5 through May 22, 2012

Sequence of Btk (Q06187 whole entry, species assumed): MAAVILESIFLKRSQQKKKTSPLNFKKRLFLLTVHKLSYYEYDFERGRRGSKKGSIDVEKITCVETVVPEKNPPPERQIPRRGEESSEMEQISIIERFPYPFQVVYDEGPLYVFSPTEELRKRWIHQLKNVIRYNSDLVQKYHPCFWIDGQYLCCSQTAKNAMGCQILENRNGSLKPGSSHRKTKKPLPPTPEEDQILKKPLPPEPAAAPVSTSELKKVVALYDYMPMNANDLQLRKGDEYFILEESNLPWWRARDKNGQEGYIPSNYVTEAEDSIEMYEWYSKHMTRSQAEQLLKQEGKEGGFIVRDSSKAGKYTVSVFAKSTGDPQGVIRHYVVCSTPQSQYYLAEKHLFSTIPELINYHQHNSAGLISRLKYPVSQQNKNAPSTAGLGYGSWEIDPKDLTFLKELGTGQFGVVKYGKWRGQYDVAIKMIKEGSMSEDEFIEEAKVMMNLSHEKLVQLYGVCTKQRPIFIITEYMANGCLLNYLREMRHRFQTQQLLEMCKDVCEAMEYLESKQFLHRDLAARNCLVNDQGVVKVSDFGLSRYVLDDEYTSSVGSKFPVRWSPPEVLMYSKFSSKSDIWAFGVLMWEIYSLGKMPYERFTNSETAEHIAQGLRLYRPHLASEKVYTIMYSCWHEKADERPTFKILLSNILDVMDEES

## COc1cc(Nc2ncc(F)c(Nc3ccc4c(n3)N(COP(=O)(O)O)C(=O)C(C)(C)O4)n2)cc(OC)c1OC [fostamatinib disodium]
[1]
  clinical response: clinical responses

## C=CC(=O)Nc1cccc(Nc2nc(Nc3ccc(OCCOC)cc3)ncc2F)c1 [Compound 1, N-(3-(5-fluoro-2-(4-(2-methoxyethoxy)phenylamino)pyrimidin-4-ylamino)phenyl)acrylamide]
B-cell
  effect on B-cell proliferation and activation: inhibit B-cell proliferation and activation
Btk
  mode of BTK inhibition: covalent, irreversible inhibition of BTK

## C=CC(=O)Nc1cccc(Nc2nc(Nc3ccc(OCCOC)cc3)ncc2F)c1.O=S(=O)(O)c1ccccc1 [N-(3-(5-fluoro-2-(4-(2-methoxyethoxy)phenylamino)pyrimidin-4-ylamino)phenyl)acrylamide besylate]
[2]; cohort C, 750 mg po QD, one patient
  progressive disease after: 73 days
[2]; cohort C, 24 subjects, 750 mg po QD
  patients showing no disease progression: twenty-three
[2]; [8]
  CLL patients with between 25 and 50% reduction of lymph node size: 6/11
  CLL patients with nodal response (>50% reduction of lymph node size): 1/11
[2]; of eighteen (18) patients in Expansion Cohort C, 750 mg QD, first 28-day cycle
  CLL patients with early increases (≧25%) in absolute lymphocyte counts (ALC): 17 patients
[3]
  environmental instabilities (i.e. heat, acid, base) that require special handling: no environmental instabilities
[4]; Day 1 to 15, once daily oral dosing
  PK exposure (AUClast): linear with no accumulation
[4]; once daily oral dosing
  PK: predictable with no accumulation
[5]; cohort 1 (125 mg), three CLL subjects
  DLT or disease progression: None of the subjects showed DLT or disease progression
[5]; cohort 1 (starting 125 mg QD), three CLL patients, one value per patient, listed as API, besylate
  progressive disease after: 187 days and 319 days and 332 days
[5]; cohort 2 (250 mg QD), DLBCL subject
  progressive disease after: 28 days
[5]; cohort 2 (250 mg), three subjects
  subjects showing no DLT or disease progression: Two of the three
[5]; cohort 3 (400 mg QD), two CLL patients, one value per patient, listed as API, besylate
  progressive disease after: 168 days and 231 days
[5]; cohort 3 (400 mg), six subjects, one MZL, two CLL
  patients showing no DLT or disease progression: Three
[5]; cohort 4 (625 mg QD), DLBCL patient
  progressive disease after: 33 days
[5]; cohort 4 (625 mg QD), mantle cell lymphoma patient
  progressive disease after: 105 days
[5]; cohort 4 (625 mg QD), two follicular lymphoma patients, one value per patient, listed as API, besylate
  progressive disease after: 56 days and 212 days
[5]; cohort 4 (625 mg), six subjects, follicular lymphoma
  patients showing no DLT or disease progression: One
[5]; cohort 5 (750 mg QD), MLBCL patient
  progressive disease after: 64 days
[5]; cohort 5 (750 mg), six subjects
  patients showing no DLT or disease progression: Five
[5]; cohorts 6A and 6B (1000 mg QD / 375 mg BID), twelve subjects, as of Sep. 11, 2012
  patients showing no DLT or disease progression: eleven
CLL patients; of fifteen (15) CLL patients in cohorts 1-6A/B, first 28-day cycle, as of Sep. 11, 2012
  CLL patients with early increases (≧25%) in absolute lymphocyte counts (ALC): 11 patients
CLL patients; [9]
  CLL patients with between 25 and 50% reduction of lymph node size: 6/12
  CLL patients with nodal response (>50% reduction of lymph node size): 2/12
B-NHL patients
  B-NHL patients with decreased lymph node size: Six
[6]; [10]
  treatment emergent AE: grade 1 or 2 headache: 23.8%
  treatment emergent AE: thrombocytopenia: 23.8%
[6]; 15/21 subjects, regardless of dose
  treatment emergent AE: grade 1 or 2 transient diarrhea: 71.4%
[6]; besides the follicular lymphoma patient in cohort 3
  other DLTs: no other DLTs have occurred
[6]; cohort 1
  serious adverse event not related to the study: disseminated Herpes zoster: 1 patient
  serious adverse event not related to the study: pneumonia: 1 patient
[6]; cohort 1, 125 mg QD
  incidence of abdominal distension: 1 patient
  incidence of contusion (bruising): 2 patients
  incidence of diarrhea: 3 patients
  incidence of dyspepsia: 1 patient
  incidence of dyspnea: 1 patient
  incidence of fatigue: 2 patients
  incidence of headache: 2 patients
  incidence of jaw pain: 1 patient
  incidence of lymph node pain: 2 patients
  incidence of muscle spasm: 1 patient
  incidence of nausea: 1 patient
  incidence of pneumonia: 1 patient
  incidence of rash: 1 patient
  incidence of sinusitis: 1 patient
  incidence of thrombocytopenia: 1 patient
  incidence of upper respiratory infection: 2 patients
  incidence of urticaria: 1 patient
  incidence of weight loss: 1 patient
[6]; cohort 2
  serious adverse event not related to the study: atrial fibrillation: 1 patient
[6]; cohort 2, 250 mg QD
  incidence of abdominal distension: 1 patient
  incidence of cough: 1 patient
  incidence of decreased diarrhea: 2 patients
  incidence of dysgeusia: 1 patient
  incidence of dyspnea: 1 patient
  incidence of fatigue: 1 patient
  incidence of nausea: 1 patient
  incidence of neutropenia: 1 patient
  incidence of pneumonia: 1 patient
  incidence of weight loss: 1 patient
[6]; cohort 3
  serious adverse event not related to the study: hematuria/urinary retention: 1 patient
  serious adverse event not related to the study: pneumonia/thrombocytopenia/ANC decreased: 1 patient
[6]; cohort 3 (400 mg QD), follicular lymphoma subject, first 28-day cycle
  dose limiting toxicity: thrombocytopenia (low platelet count; Grade 4)
[6]; cohort 3, 400 mg QD
  incidence of anemia: 1 patient
  incidence of cough: 2 patients
  incidence of diarrhea: 4 patients
  incidence of fatigue: 1 patient
  incidence of headache: 1 patient
  incidence of influenza-like illness: 1 patient
  incidence of insomnia: 1 patient
  incidence of jaw pain: 1 patient
  incidence of muscle spasm: 1 patient
  incidence of neutropenia: 2 patients
  incidence of pneumonia: 1 patient
  incidence of rash: 1 patient
  incidence of thrombocytopenia: 3 patients
  incidence of upper respiratory infection: 2 patients
  incidence of urinary retention: 1 patient
  incidence of urticaria: 1 patient
[6]; cohort 4
  serious adverse event not related to the study: tonsillar hypertrophy: 1 patient
[6]; cohort 4 (625 mg QD), CLL patient, after three cycles
  neutropenia (adverse event) leading to discontinuation, after: 85 days
[6]; cohort 4, 625 mg QD
  incidence of abdominal pain: 2 patients
  incidence of anemia: 1 patient
  incidence of dehydration: 2 patients
  incidence of diarrhea: 5 patients
  incidence of dysgeusia: 2 patients
  incidence of dyspepsia: 2 patients
  incidence of eye pain: 2 patients
  incidence of headache: 2 patients
  incidence of influenza-like illness: 1 patient
  incidence of insomnia: 1 patient
  incidence of nausea: 2 patients
  incidence of neutropenia: 1 patient
  incidence of sinusitis: 1 patient
  incidence of thrombocytopenia: 1 patient
  incidence of urinary retention: 1 patient
[6]; [11]
  incidence of abdominal pain: 1 patient
  incidence of diarrhea: 1 patient
[6]; [12]
  Grade 3-4 neutropenia: 3 patients
  Grade 3-4 pneumonia: 2 patients
  Grade 3-4 thrombocytopenia: 4 patients
[6]
  maximum tolerated dose (MTD): not yet been reached
[6]; listed as API
  maximum tolerated dose (MTD): not been reached
[6]; except for decreased ANC (neutropenia), pneumonia and thrombocytopenia
  severity of adverse events reported: Grade 1 and 2
[6]; subjects/21, probably related
  Grade 3/4 adverse event: neutropenia: 3/21
  Grade 3/4 adverse event: pneumonia: 2/21
  Grade 3/4 adverse event: thrombocytopenia: 4/21
Solubility of the API; ethanol, organic solvent or mixture, read-out: solubility in ethanol
  solubility: ~10000 µg/mL
Solubility of the API; water, read-out: solubility in water
  solubility: ~160 µg/mL
[7]
  patients showing no DLT: Twenty-four
